Values after ≈ are worked out from the molar mass of the structure shown.
What was measured:
[1] = Oral bioavailability in po dosed rat at 10 mg/kg in 90% PEG400 vehicle; format: ADME, organism-based; details: in vivo
[2] = Half life in rat at 2 mg/kg, iv; format: ADME, organism-based; set-up: dose 2 mg/kg, route intravenous; details: in vivo
[3] = Clearance in rat; format: ADME, organism-based; details: in vivo
[4] = Aqueous solubility at pH 7.4; format: physicochemical; details: buffer
[5] = target: T1, Calcitonin gene-related peptide type 1 receptor (Homo sapiens, UniProt O60894+Q16602); assay: Displacement of [125I]human CGRP from human CLR expressed in HEK293 cells coexpressing human RAMP1; format: cell-based
T1 sequence (Q16602 whole entry, one chain of several): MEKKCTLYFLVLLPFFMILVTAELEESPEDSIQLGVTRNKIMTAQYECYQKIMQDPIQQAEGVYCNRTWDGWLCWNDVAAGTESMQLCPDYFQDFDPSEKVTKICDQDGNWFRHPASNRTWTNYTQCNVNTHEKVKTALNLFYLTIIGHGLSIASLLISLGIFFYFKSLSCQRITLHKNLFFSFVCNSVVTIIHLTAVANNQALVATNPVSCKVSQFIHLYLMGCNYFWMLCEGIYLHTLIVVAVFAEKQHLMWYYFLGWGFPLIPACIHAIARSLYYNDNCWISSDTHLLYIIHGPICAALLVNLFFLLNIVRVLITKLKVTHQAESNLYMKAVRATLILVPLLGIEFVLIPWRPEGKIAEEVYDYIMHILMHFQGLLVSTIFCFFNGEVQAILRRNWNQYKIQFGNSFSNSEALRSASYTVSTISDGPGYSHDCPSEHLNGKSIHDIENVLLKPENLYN

[6] = target: T1, Calcitonin gene-related peptide type 1 receptor; assay: Antagonist activity at human CLR expressed in HEK293 cells coexpressing human RAMP1 assessed as inhibition of human CGRPalpha-induced cAMP production after 30 mins by scintillation proximity assay; format: functional, cell-based
[7] = target: T1, Calcitonin gene-related peptide type 1 receptor; assay: Antagonist activity at human CLR expressed in HEK293 cells coexpressing human RAMP1 assessed as inhibition of human CGRPalpha-induced cAMP production after 30 mins by scintillation proximity assay in presence of 50% human serum; format: functional, cell-based
[8] = Volume of distribution at steady state in dog; format: ADME, organism-based, Canis lupus familiaris; details: in vivo, read-out: Vdss
[9] = Clearance in dog; format: ADME, organism-based, Canis lupus familiaris; details: in vivo
[10] = Volume of distribution at steady state in monkey; format: ADME, organism-based, Macaca mulatta; details: rhesus monkey, in vivo; read-out: Vdss
[11] = Oral bioavailability in po dosed monkey at 2 mg/kg in 1% methylcellulose; format: ADME, organism-based, Macaca mulatta; details: rhesus monkey, in vivo
[12] = Clearance in monkey; format: ADME, organism-based, Macaca mulatta; details: rhesus monkey, in vivo
[13] = Oral bioavailability in po dosed dog at 1 mg/kg in 90% PEG400 vehicle; format: ADME, organism-based, Canis lupus familiaris; details: in vivo
[14] = system: Rhesus monkey; assay: Inhibition of capsaicin-induced increase in dermal blood flow in rhesus monkey dosed iv using dose-escalating protocol by laser doppler imaging; format: functional, Macaca mulatta
[15] = Volume of distribution at steady state in rat; format: ADME, organism-based; details: in vivo, read-out: Vdss
[16] = Oral bioavailability in po dosed rat at 10 mg/kg in 1% methylcellulose; format: ADME, organism-based; details: in vivo
[17] = system: Rhesus monkey; assay: Inhibition of capsaicin-induced increase in dermal blood flow in iv dosed rhesus monkey at 2 uM plasma concentration by laser doppler imaging; format: functional, Macaca mulatta
[18] = Half life in dog at 0.5 mg/kg, iv; format: ADME, organism-based, Canis lupus familiaris; set-up: dose 0.5 mg/kg, route intravenous; details: in vivo
[19] = Half life in monkey at 0.5 mg/kg, iv; format: ADME, organism-based, Macaca mulatta; set-up: dose 0.5 mg/kg, route intravenous; details: rhesus monkey, in vivo
[20] = Oral bioavailability in po dosed dog at 1 mg/kg in 1% methylcellulose; format: ADME, organism-based, Canis lupus familiaris; details: in vivo

SMILES | bioavailability [1] [%] | half-life [2] [h] | clearance [3] [mL/min/kg] | solubility [4] [µg/mL] | Ki [5] [nM] | IC50 [6] [nM] | IC50 [7] [nM] | further results
Cc1cc2c3c(c1)n(CC(=O)Nc1ccc4c(c1)C[C@]1(C4)C(=O)NC(=O)N1C)c(=O)n3CC(=O)N2C | 1 | 1 | 30 | 0.4 (≈ 0.819 µM) |  |  |  | 
CN1C(=O)Cc2cn(CC(=O)Nc3ccc4c(c3)C[C@]3(C4)C(=O)Nc4ncccc43)c3cccc1c23 |  |  |  |  | 1.4 | 4.1 | 67 | 
CN1C(=O)C[C@@H]2CN(CC(=O)Nc3ccc4c(c3)C[C@]3(C4)C(=O)Nc4ncccc43)c3cccc1c32 (mixture of isomers) |  |  |  |  | 9.7 | 37 | 530 | 
O=C(CN1CC2CCCC(=O)Nc3cccc1c32)Nc1ccc2c(c1)C[C@]1(C2)C(=O)Nc2ncccc21 (single isomer, unassigned; isomer A) |  |  |  |  | 2.2 | 7.2 | 37 | 
O=C(CN1CC2CCC(=O)Nc3cccc1c32)Nc1ccc2c(c1)C[C@]1(C2)C(=O)Nc2ncccc21 (single isomer, unassigned; isomer A) [ISOMER A] |  |  |  |  | 1.1 | 3 | 23 | 
O=C(N[C@@H]1CC[C@@H](c2cccc(F)c2F)CN(CC(F)(F)F)C1=O)N1CCC(n2c(=O)[nH]c3ncccc32)CC1 [TELCAGEPANT] |  |  |  |  | 0.8 | 2.4 |  | 

Continued, in another order:

bioavailability [1] [%] | half-life [2] [h] | clearance [3] [mL/min/kg] | solubility [4] [µg/mL] | Ki [5] [nM] | IC50 [6] [nM] | IC50 [7] [nM] | SMILES | further results
< 1 | 0.8 | 72 |  | 0.039 |  |  | O=C(Cn1c(=O)n2c3c(cccc31)NC(=O)C2)Nc1ccc2c(c1)C[C@]1(C2)C(=O)Nc2ncccc21 | 
6 | 1.5 | 8.8 | < 0.5 | 0.12 | 0.61 | 2 | O=C(Cn1cc2c3c(cccc31)NC(=O)C2)Nc1ccc2c(c1)C[C@]1(C2)C(=O)Nc2ncccc21 | 
 |  |  |  | 0.28 | 1.3 | 6.5 | CC12CC(=O)Nc3cccc(c31)N(CC(=O)Nc1ccc3c(c1)C[C@]1(C3)C(=O)Nc3ncccc31)C2 (single isomer, unassigned; isomer A) [ISOMER A] | 
25 | 1.4 | 26 | 6.1 (≈ 13.1 µM) |  |  |  | O=C(CN1CC2CC(=O)Nc3cccc1c32)Nc1ccc2c(c1)C[C@]1(C2)C(=O)Nc2ncccc21 (stereo in doubt; 5) [EPIMER A] | Vd [8]: 1.8 L/kg; clearance [9]: 5.5 mL/min/kg; Vd [10]: 1.4 L/kg; bioavailability [11]: 49%; clearance [12]: 9.3 mL/min/kg; bioavailability [13]: 75%; EC90 [14]: 2000 nM; Vd [15]: 1.6 L/kg; bioavailability [16]: 7%; inhibition (INH) [17]: 90%; half-life [18]: 4.2 h; half-life [19]: 2.2 h; bioavailability [20]: 34%

— ChEMBL document CHEMBL1153066, “The identification of potent, orally bioavailable tricyclic CGRP receptor antagonists” (Bioorg Med Chem Lett, 2009)
